Reference: ChEMBL document CHEMBL1154763, “Antitrypanosomal activity of 1,2-dihydroquinolin-6-ols and their ester derivatives” (J Med Chem, 2010)
The source made the active and inactive calls. The calls are words filed in the database; no cut-off is given here.

Columns and labels:
[1] = test system: Trypanosoma brucei brucei; experiment: Antitrypanosomal activity against Trypanosoma brucei brucei STIB 795 infected in NMRI mouse African trypanosomiasis model assessed as parasite free mouse survival at 10 mg/kg, ip qd administered for 4 consecutive days from day 3 to 6 postinfection measured up to 30 days; conditions: STIB795
[2] = test system: Trypanosoma brucei rhodesiense; experiment: Antitrypanosomal activity against bloodstream Trypanosoma brucei rhodesiense STIB 900 after 70 hrs by alamar blue assay; assay type: functional, organism-based; conditions: STIB 900, 70 h
L6 = experiment: Cytotoxicity against rat L6 cells after 70 hrs by alamar blue assay; assay type: cell-based; conditions: L6, 70 h
[3] = Selectivity index, ratio of IC50 for rat L6 cells to IC50 for bloodstream Trypanosoma brucei rhodesiense STIB 900; assay type: toxicity, cell-based; conditions: read-out: Ratio IC50
[4] = test system: Trypanosoma brucei brucei; experiment: Antitrypanosomal activity against Trypanosoma brucei brucei STIB 795 infected in NMRI mouse African trypanosomiasis model assessed as parasite free mouse survival at 50 mg/kg, ip qd administered for 4 consecutive days from day 3 to 6 postinfection measured up to 30 days; conditions: route intraperitoneal
Mus musculus = experiment: Toxicity in Trypanosoma brucei STIB795 infected in NMRI mouse African trypanosomiasis model assessed as overt signs of at 50 mg/kg, ip qd administered for 4 consecutive days from day 3 to 6 postinfection measured up to 30 days; conditions: in vivo, 720 h
[5] = test system: Trypanosoma brucei brucei; experiment: Induction of reactive oxygen species generation in Trypanosoma brucei brucei MITat1,2,variant 221 at 10 uM preincubated for 24 hrs by CM-H2DCFDA fluorescence assay
[6] = test system: Trypanosoma brucei brucei; experiment: Induction of reactive oxygen species generation in Trypanosoma brucei brucei MITat1,2,variant 221 at 1 uM preincubated for 24 hrs by CM-H2DCFDA fluorescence assay
[7] = test system: Trypanosoma brucei brucei; experiment: Induction of reactive oxygen species generation in Trypanosoma brucei brucei MITat1,2,variant 221 at 0.1 uM preincubated for 24 hrs by CM-H2DCFDA fluorescence assay

SMILES | IC50 [2] [nM] | IC50 (L6; read-out: IC50) [µM] | selectivity ratio [3] | also measured
N=C(N)c1ccc(/N=N/Nc2ccc(C(=N)N)cc2)cc1 | – | – | – | Activity [1]: Active
COc1cc(CN2c3ccc(OC(C)=O)cc3C=CC2(C)C)cc(OC)c1 | 200 | 10 | 50 | –
CC(=O)Oc1ccc2c(c1)C(C)=CC(C)(C)N2Cc1ccc(C(F)(F)F)cc1 | 360 | 14 | 39 | –
COc1cc(COc2ccc3c(c2)C(C)=CC(C)(C)N3)cc(OC)c1 | 13000 | 68 | 5 | –
CC1=CC(C)(C)Nc2ccc(OCc3ccccc3)cc21 | 4100 | 56 | 14 | –
CC1=CC(C)(C)Nc2ccc(OC(=O)c3ccc4c(c3)OCO4)cc21 | 300 | 29 | 99 | –
CC1=CC(C)(C)Nc2ccc(O)cc21 | 780 | 18 | 23 | –
CC1=CC(C)(C)N(Cc2ccccc2)c2ccc(OC(=O)Cc3ccccc3)cc21 | 15 | 160 | 11000 | –
COc1cc(OC)cc(C(=O)Oc2ccc3c(c2)C(C)=CC(C)(C)N3Cc2ccc(Cl)cc2)c1 | 48 | > 190 | > 3900 | –
CC(=O)Oc1ccc2c(c1)C(C)=CC(C)(C)N2Cc1cccc(C#N)c1 | 180 | 31 | 170 | Survival [4]: 9.25 days; Activity (Mus musculus): Non-toxic
CC(=O)Oc1ccc2c(c1)C(C)=CC(C)(C)N2Cc1cccc(C)c1 | 340 | 28 | 82 | –
CC(=O)Oc1ccc2c(c1)C(C)=CC(C)(C)N2Cc1ccc(C#N)cc1 | 260 | 29 | 110 | –
CC1=CC(C)(C)N(Cc2ccccc2)c2ccc(OC(=O)C3CCCCC3)cc21 | 28 | > 230 | > 8200 | –
COc1cccc(COc2ccc3c(c2)C(C)=CC(C)(C)N3Cc2cccc(OC)c2)c1 | 63000 | > 210 | > 3 | –
COc1ccccc1COc1ccc2c(c1)C(C)=CC(C)(C)N2 | 5300 | 48 | 9 | –
CC(=O)Oc1ccc2c(c1)C(C)=CC(C)(C)N2Cc1ccc(Cl)c(Cl)c1 | 53 | 28 | 530 | –
CC1=CC(C)(C)Nc2ccc(OC(=O)c3cccc(C(=O)Oc4ccc5c(c4)C(C)=CC(C)(C)N5)c3)cc21 | < 8 | 63 | > 7800 | –
COc1cccc(CN2c3ccc(OC(C)=O)cc3C(C)=CC2(C)C)c1 | 320 | 29 | 91 | –
CC1=CC(C)(C)N(Cc2ccccc2)c2ccccc21 | 57000 | 110 | 2 | Activity [5]: inactive; Activity [6]: inactive; Activity [7]: inactive
COc1cc(CN2c3ccc(O)cc3C(C)=CC2(C)C)cc(OC)c1 | 140 | 11 | 83 | –
CCCCCCCC(=O)Oc1ccc2c(c1)C(C)=CC(C)(C)N2Cc1ccccc1 | 17 | 220 | 13000 | –
CC1=CC(C)(C)N(Cc2ccc(Cl)cc2)c2ccc(O)cc21 | 61 | 7.9 | 130 | –
CC1=CC(C)(C)Nc2ccc(OCc3cccc(C(F)(F)F)c3)cc21 | 8800 | 45 | 5 | –
COc1cc(OC)cc(C(=O)Oc2ccc3c(c2)C(C)=CC(C)(C)N3Cc2ccccc2)c1 | 23 | 24 | 1000 | –
CC(=O)Oc1ccc2c(c1)N(Cc1ccccc1)C(C)(C)C=C2C | 4400 | 71 | 16 | Activity [5]: inactive; Activity [6]: inactive; Activity [7]: inactive
COc1cc([C@@H]2c3cc4c(cc3[C@H](O)[C@H]3COC(=O)[C@H]23)OCO4)cc(OC)c1OC [PODOFILOX] | – | – | – | IC50 (L6): 0.012 µM
CC1=CC(C)(C)N(Cc2ccc(C(F)(F)F)cc2)c2ccc(OCc3ccc(C(F)(F)F)cc3)cc21 | 86000 | > 180 | > 2 | –
Nc1nc(N)nc(Nc2ccc([As]3SCC(CO)S3)cc2)n1 (stereo not drawn) [MELARSOPROL] | 8 | 7.9 | 1000 | –
